Among the data in patent US12336981B2, “Compounds and compositions for the inhibition of NAMPT” (Valo Health, Inc., priority 2010, dated 2025) are IC50 values, retold here.

For one test, the system named is A2780 cells. Description: In-vitro cell proliferation assay (SRB), A2780 cells. The test is classed as cell-based. Conditions: Homo sapiens, A2780, 72 h, A2780 cells, 72 hours, SRB; read-out: A2780 IC50. An outline of the steps:
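Proliferation is assessed by sulforhodamine B staining following a 72-hour incubation with compound dilutions containing 0.1% DMSO.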

The next test has as its target T1, NAMPT (Homo sapiens, UniProt P43490).
T1 construct: His tag; host or cells: E. coli
Nature of the test: Biochemical inhibition assay: NAMPT enzymatic reaction, NMN quantified by mass spectrometry. The note with it: NAMPT enzymatic reaction; read-out: Biochem IC50. An outline of the steps:
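Inhibition of E. coli-expressed His-tagged human NAMPT, measured as NMN formation by mass spectrometry after a 30 min room-temperature reaction containing 1 μM NAM, 100 μM PRPP and 2.5 mM ATP.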

T1 sequence (P43490 whole entry): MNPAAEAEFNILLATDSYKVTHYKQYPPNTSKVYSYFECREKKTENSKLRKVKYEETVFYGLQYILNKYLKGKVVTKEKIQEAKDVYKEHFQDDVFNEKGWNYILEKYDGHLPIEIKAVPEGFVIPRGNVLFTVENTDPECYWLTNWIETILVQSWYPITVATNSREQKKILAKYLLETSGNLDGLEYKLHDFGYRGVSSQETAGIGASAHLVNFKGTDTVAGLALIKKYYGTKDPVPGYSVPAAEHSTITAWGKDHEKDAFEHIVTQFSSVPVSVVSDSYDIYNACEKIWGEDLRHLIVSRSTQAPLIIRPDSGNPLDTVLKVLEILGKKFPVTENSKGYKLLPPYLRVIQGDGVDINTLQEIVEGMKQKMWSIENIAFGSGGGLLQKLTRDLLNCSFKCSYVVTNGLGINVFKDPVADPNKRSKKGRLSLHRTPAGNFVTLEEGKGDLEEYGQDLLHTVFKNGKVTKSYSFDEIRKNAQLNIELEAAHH

As for `CCCOc1cccc(F)c1S(=O)(=O)c1ccc(CNC(=O)c2cc3ccncc3s2)cc1`, the results for the IC50 in the test with A2780 cells and at NAMPT were 29.3 nM and 11.5 nM, respectively.
Consider `CS(=O)(=O)c1ccccc1S(=O)(=O)c1ccc(CNC(=O)c2cc3ccncc3o2)cc1`, for which the IC50 in the test with A2780 cells was 100 to 1000 nM; at NAMPT, 54.2 nM.
As for `CS(=O)(=O)c1ccccc1S(=O)(=O)c1ccc(CNC(=O)c2cnc3[nH]ncc3c2)cc1`, the IC50 in the test with A2780 cells is 100 to 1000 nM; at NAMPT, 202 nM.
The matching figures for `COc1ccc(C)cc1S(=O)(=O)c1ccc(CNC(=O)c2cc3ccncc3o2)cc1`: 6.8 nM and 13.3 nM.
The matching figures for `COc1ccc(C)cc1S(=O)(=O)c1ccc(CNC(=O)c2cnc3nccn3c2)cc1`: 7.2 nM and 3.9 nM.
As for `CCCOc1ccc(S(=O)(=O)c2ccc(CNC(=O)c3ccc4nccn4c3)cc2)c(C)c1`, the results for the IC50 in the test with A2780 cells and on NAMPT were 13.3 nM and 9.2 nM, respectively.
Turning to `CCCOc1ccc(S(=O)(=O)c2ccc(CNC(=O)c3cnc4[nH]ncc4c3)cc2)c(C)c1`, the results for the IC50 in the test on A2780 cells and at NAMPT were 79.4 nM and 64.4 nM, respectively.
The matching figures for `CCCOc1ccc(S(=O)(=O)c2ccc(CNC(=O)c3cc4ccncc4o3)cc2)c(C)c1`: 59.6 nM and 22.5 nM.
For `CCCOc1ccc(S(=O)(=O)c2ccc(CNC(=O)c3cc4cnccc4[nH]3)cc2)c(C)c1` the same measures were 22.1 nM and 30.5 nM.
Regarding `CCCOc1ccc(S(=O)(=O)c2ccc(CNC(=O)c3cnc4nccn4c3)cc2)c(C)c1`, the IC50 was determined as 51.8 nM in the test on A2780 cells and 10 nM on NAMPT.
The matching figures for `O=C(NCc1ccc(S(=O)(=O)c2ccccc2Oc2ccccc2)cc1)c1cc2ccncc2o1`: 1000 to 10000 nM and 20.4 nM.
Take `O=C(NCc1ccc(S(=O)(=O)c2ccccc2Oc2ccccc2)cc1)c1cnc2nccn2c1`: the IC50 is 100 to 1000 nM with A2780 cells and 8.5 nM at NAMPT.
For `COc1cccc(S(=O)(=O)c2ccc(CNC(=O)c3cnc4nccn4c3)cc2)c1OC` the same measures were 77.6 nM and 17.6 nM.
For `COc1cccc(S(=O)(=O)c2ccc(CNC(=O)c3cc4cnccc4[nH]3)cc2)c1OC` the same measures were 4.9 nM and 11.7 nM.
For `COc1cccc(S(=O)(=O)c2ccc(CNC(=O)c3cc4ccncc4o3)cc2)c1OC` the same measures were 13.6 nM and 9.3 nM.
As for `Cc1cccc(S(=O)(=O)c2ccc(CNC(=O)c3cnc4nccn4c3)cc2)c1C`, the IC50 worked out at 46.9 nM in the test on A2780 cells and 4.1 nM on NAMPT.
For `Cc1cccc(S(=O)(=O)c2ccc(CNC(=O)c3cc4ccncc4o3)cc2)c1C` the same measures were 8 nM and 51.6 nM.
For `CC(=O)c1cccc(S(=O)(=O)c2ccc(CNC(=O)c3cnc4[nH]ncc4c3)cc2)c1` the same measures were 12.9 nM and 10 nM.
For `CC(=O)c1cccc(S(=O)(=O)c2ccc(CNC(=O)c3cnc4nccn4c3)cc2)c1` the same measures were 10.5 nM and 1.8 nM.
Consider `CCCCOc1cccc(S(=O)(=O)c2ccc(CNC(=O)c3ccc4nccn4c3)cc2)c1`, for which the figures for the IC50 in the test on A2780 cells and at NAMPT were 18 nM and 4.7 nM, respectively.
In the case of `CCCCOc1cccc(S(=O)(=O)c2ccc(CNC(=O)c3cc4ccncc4s3)cc2)c1`, the IC50 in the test on A2780 cells is 38.7 nM; on NAMPT, 3.3 nM.
The matching figures for `O=C(NCc1ccc(S(=O)(=O)c2cccc(Cl)c2F)cc1)c1cnc2nccn2c1`: 17.6 nM and 2.4 nM.
For `O=C(NCc1ccc(S(=O)(=O)c2cccc(Cl)c2F)cc1)c1cc2ccncc2o1` the same measures were 12.8 nM and 10.9 nM.
For `COc1c(Cl)cccc1S(=O)(=O)c1ccc(CNC(=O)c2cc3ccncc3o2)cc1`, the IC50 was 62.3 nM in the test with A2780 cells and 19.2 nM on NAMPT.
The matching figures for `Cc1c(Cl)cccc1S(=O)(=O)c1ccc(CNC(=O)c2ccc3nccn3c2)cc1`: 5 nM and 25.7 nM.
For `Cc1c(Cl)cccc1S(=O)(=O)c1ccc(CNC(=O)c2cc3ccncc3o2)cc1`, the IC50 in the test on A2780 cells stood at 1.6 nM; at NAMPT, 2.6 nM.
For `Cc1c(Cl)cccc1S(=O)(=O)c1ccc(CNC(=O)c2cc3cnccc3[nH]2)cc1` the same measures were 12 nM and 62.5 nM.
For `Cc1c(Cl)cccc1S(=O)(=O)c1ccc(CNC(=O)c2cnc3nccn3c2)cc1` the same measures were 26.5 nM and 4.3 nM.
The matching figures for `COc1ccc(S(=O)(=O)c2ccc(CNC(=O)c3cc4cnccc4[nH]3)cc2)cc1Cl`: 2.1 nM and 10.7 nM.
Regarding `COc1ccc(S(=O)(=O)c2ccc(CNC(=O)c3cnc4nccn4c3)cc2)cc1Cl`, the IC50 with A2780 cells and at NAMPT was 1.8 nM each time.
With `COc1ccc(S(=O)(=O)c2ccc(CNC(=O)c3cnc4[nH]ncc4c3)cc2)cc1Cl`, the figures for the IC50 with A2780 cells and on NAMPT were 3.6 nM and 4 nM, respectively.
In the case of `Cc1ccc(S(=O)(=O)c2ccc(CNC(=O)c3cc4ccncc4s3)cc2)cc1Cl`, the IC50 in the test on A2780 cells was found to be 1 nM; at NAMPT, 5.1 nM.
With `Cc1ccc(S(=O)(=O)c2ccc(CNC(=O)c3cc4ccncc4o3)cc2)cc1Cl`, the concentration for half-maximal inhibition (IC50) was 1.7 nM in the test with A2780 cells and 52.8 nM at NAMPT.
The matching figures for `Cc1ccc(S(=O)(=O)c2ccc(CNC(=O)c3cnc4nccn4c3)cc2)cc1Cl`: 1.2 nM and 1.8 nM.
On to `Cc1ccc(S(=O)(=O)c2ccc(CNC(=O)c3cc4cnccc4[nH]3)cc2)cc1Cl`, for which the results for the half-maximal inhibitory concentration (IC50) in the test with A2780 cells and at NAMPT were 2.5 nM and 8.3 nM, respectively.
For `CCCOc1ccc(S(=O)(=O)c2ccc(CNC(=O)c3cc4ccncc4o3)cc2)cc1Cl` the same measures were 11.9 nM and 4.9 nM.
For `CCCOc1ccc(S(=O)(=O)c2ccc(CNC(=O)c3cnc4nccn4c3)cc2)cc1Cl` the same measures were 2.4 nM and 3.9 nM.
With `CCCOc1ccc(S(=O)(=O)c2ccc(CNC(=O)c3ccc4nccn4c3)cc2)cc1Cl`, the results for the IC50 in the test on A2780 cells and at NAMPT were 6 nM and 6.5 nM, respectively.
For `CCCOc1ccc(S(=O)(=O)c2ccc(CNC(=O)c3cc4ccncc4s3)cc2)cc1Cl` the same measures were 17.4 nM and 15.1 nM.
The matching figures for `O=C(NCc1ccc(S(=O)(=O)c2cc(F)cc(Cl)c2)cc1)c1cnc2[nH]ncc2c1`: 6 nM and 13.3 nM.
The matching figures for `O=C(NCc1ccc(S(=O)(=O)c2cc(F)cc(Cl)c2)cc1)c1cc2cnccc2[nH]1`: 1.4 nM and 9.9 nM.
Regarding `O=C(NCc1ccc(S(=O)(=O)c2ccc(Cl)c(Cl)c2)cc1)c1cc2ccncc2o1`, the figures for the IC50 with A2780 cells and on NAMPT were 4.8 nM and 10.4 nM, respectively.
The matching figures for `O=C(NCc1ccc(S(=O)(=O)c2ccc(Cl)c(Cl)c2)cc1)c1cnc2nccn2c1`: 1.7 nM and 1.5 nM.
The matching figures for `O=C(NCc1ccc(S(=O)(=O)c2ccc(F)c(F)c2)cc1)c1cc2ccncc2o1`: 13 nM and 16.8 nM.
The matching figures for `O=C(NCc1ccc(S(=O)(=O)c2ccc(F)c(F)c2)cc1)c1cnc2nccn2c1`: 36.3 nM and 4.1 nM.
Regarding `O=C(NCc1ccc(S(=O)(=O)c2ccc(F)c(F)c2)cc1)c1cnc2[nH]ncc2c1`, the IC50 came out at 28.9 nM with A2780 cells and 54.2 nM on NAMPT.
The matching figures for `COc1ccc(S(=O)(=O)c2ccc(CNC(=O)c3cc4ccncc4o3)cc2)cc1OC`: 3.8 nM and 6.2 nM.
The matching figures for `COc1ccc(S(=O)(=O)c2ccc(CNC(=O)c3cnc4[nH]ncc4c3)cc2)cc1OC`: 5.6 nM and 20.6 nM.
For `COc1ccc(S(=O)(=O)c2ccc(CNC(=O)c3cnc4nccn4c3)cc2)cc1OC` the same measures were 7.3 nM and 2.9 nM.
Consider `Cc1ccc(S(=O)(=O)c2ccc(CNC(=O)c3cnc4[nH]ncc4c3)cc2)cc1C`, for which the IC50 is 3.4 nM in the test on A2780 cells and 5.1 nM at NAMPT.
The matching figures for `Cc1ccc(S(=O)(=O)c2ccc(CNC(=O)c3cnc4nccn4c3)cc2)cc1C`: 1.6 nM and 1.1 nM.
For `Cc1ccc(S(=O)(=O)c2ccc(CNC(=O)c3cc4ccncc4o3)cc2)cc1C` the same measures were 3 nM and 15 nM.
For `O=C(NCc1ccc(S(=O)(=O)c2cc(Cl)cc(Cl)c2)cc1)c1cnc2[nH]ncc2c1` the same measures were 2.1 nM and 6.7 nM.
Take `O=C(NCc1ccc(S(=O)(=O)c2cc(Cl)cc(Cl)c2)cc1)c1cc2cnccc2[nH]1`: the IC50 in the test with A2780 cells is 0.4 nM; at NAMPT, 1 nM.
In the case of `O=C(NCc1ccc(S(=O)(=O)c2cc(F)cc(F)c2)cc1)c1cnc2nccn2c1`, the IC50 came to 3 nM in the test on A2780 cells and 2 nM on NAMPT.
The matching figures for `COc1cc(OC)cc(S(=O)(=O)c2ccc(CNC(=O)c3cc4ccncc4o3)cc2)c1`: 1.7 nM and 2.7 nM.
The matching figures for `COc1cc(OC)cc(S(=O)(=O)c2ccc(CNC(=O)c3cc4cnccc4[nH]3)cc2)c1`: 1.5 nM and 4.4 nM.
The matching figures for `COc1cc(OC)cc(S(=O)(=O)c2ccc(CNC(=O)c3cnc4[nH]ncc4c3)cc2)c1`: 2.2 nM and 2.6 nM.
Regarding `COc1cc(OC)cc(S(=O)(=O)c2ccc(CNC(=O)c3cc4ccncc4s3)cc2)c1`, the figures for the IC50 in the test on A2780 cells and at NAMPT were 0.9 nM and 1.3 nM, respectively.
The matching figures for `Cc1cc(C)cc(S(=O)(=O)c2ccc(CNC(=O)c3cnc4nccn4c3)cc2)c1`: 2 nM and 1.7 nM.
For `Cc1cc(C)cc(S(=O)(=O)c2ccc(CNC(=O)c3cnc4[nH]ncc4c3)cc2)c1` the same measures were 6.1 nM and 10.4 nM.
The matching figures for `Cc1cc(C)cc(S(=O)(=O)c2ccc(CNC(=O)c3cc4ccncc4o3)cc2)c1`: 2.8 nM and 16.7 nM.
